US8129355B2, “Ketone ligands for modulating the expression of exogenous genes via an ecdysone receptor complex” (priority 2002, dated 2012)

How the values were obtained:
[1] = target: T1, Bombyx mori EcR (VP16 fusion, switch construct CVBE) with 6XEcRE LacZ reporter (Bombyx mori, UniProt P49881); assay: Z3 assay: β-galactosidase (LacZ) reporter gene fold induction in stably transformed human 293 kidney cells (clone Z3); format: cell-based; details: single dose 33 μM; ligand treated / DMSO treated cells
T1 construct: expressed in transfected cells; host or cells: Human 293 kidney (HEK-293) cells, retrovirally infected, clone Z3
T1 sequence (P49881 86-606 limits assumed): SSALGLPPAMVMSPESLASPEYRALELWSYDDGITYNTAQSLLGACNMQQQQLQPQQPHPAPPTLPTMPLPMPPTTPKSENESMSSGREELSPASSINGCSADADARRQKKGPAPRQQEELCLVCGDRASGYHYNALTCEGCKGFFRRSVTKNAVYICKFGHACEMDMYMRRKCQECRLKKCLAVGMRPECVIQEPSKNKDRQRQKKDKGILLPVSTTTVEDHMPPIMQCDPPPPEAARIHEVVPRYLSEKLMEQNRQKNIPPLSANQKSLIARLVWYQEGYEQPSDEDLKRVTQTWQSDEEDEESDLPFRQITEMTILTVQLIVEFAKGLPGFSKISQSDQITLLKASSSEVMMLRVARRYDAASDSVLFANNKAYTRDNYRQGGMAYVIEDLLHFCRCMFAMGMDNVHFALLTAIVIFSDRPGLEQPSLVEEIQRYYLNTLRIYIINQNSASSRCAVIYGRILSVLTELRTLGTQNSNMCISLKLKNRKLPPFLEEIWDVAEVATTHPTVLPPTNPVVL
T1 sequence (P19793 1-462 partner): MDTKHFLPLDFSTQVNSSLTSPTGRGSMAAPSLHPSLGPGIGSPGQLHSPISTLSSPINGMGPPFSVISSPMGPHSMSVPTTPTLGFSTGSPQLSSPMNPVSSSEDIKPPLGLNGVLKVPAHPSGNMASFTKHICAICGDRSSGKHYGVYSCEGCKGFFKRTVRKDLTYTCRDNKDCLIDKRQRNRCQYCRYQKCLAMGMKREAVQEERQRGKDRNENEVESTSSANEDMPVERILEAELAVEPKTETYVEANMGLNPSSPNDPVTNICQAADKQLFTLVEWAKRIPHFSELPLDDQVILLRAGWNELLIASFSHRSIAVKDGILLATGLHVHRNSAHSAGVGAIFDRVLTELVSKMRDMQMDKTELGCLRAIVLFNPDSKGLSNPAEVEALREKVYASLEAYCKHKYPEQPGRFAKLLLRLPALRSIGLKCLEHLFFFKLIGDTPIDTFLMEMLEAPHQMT
Source text: Dr. F. Gage provided a population of stably transformed cells containing CVBE and 6XEcRE as described in Suhr, S. T., Gil, E. B., Senut M. C., Gage, F. H. (1998) Proc. Natl. Acad. Sci. USA 95, 7999-804. Human 293 kidney cells, also referred to as HEK-293 cells, were sequentially infected with retroviral vectors encoding first the switch construct CVBE, and subsequently the reporter construct 6XEcRE Lac Z. The switch construct contained the coding sequence for amino acids 26-546 from Bombyx mori EcR (BE) (Iatrou) inserted in frame and downstream of the VP16 transactivation domain (VBE). A synthetic ATG start codon was placed under the control of cytomegalovirus (CVBE) immediate early promoter and flanked by long terminal repeats (LTR). The reporter construct contained six copies of the ecdysone response element (EcRE) binding site placed upstream of LacZ and flanked on both sides with LTR sequences (6XEcRE).
Dilution cloning was used to isolate individual clones. Clones were selected using 450 ug/mL G418 and 100 ng/mL puromycin. Individual clones were evaluated based on their response in the presence and absence of test ligands. Clone Z3 was selected for screening and SAR purposes.
Human 293 kidney cells stably transformed with CVBE and 6XEcRE lack were maintained in Minimum Essential Medium (Mediates, 10-010-CV) containing 10% FBS (Life Technologies, 26140-087), […] G418 (Mediates, 30-234-CR), and […] (Sigma, P-7255), at 37° C. in an atmosphere containing 5% CO2 and were subculture when they reached 75% confluence.
Z3 cells were seeded into 96-well tissue culture plates at a concentration of 2.5×10^3 cells per well and incubated at 37° C. in 5% CO2 for twenty-four hours. Stock solutions of ligands were prepared in DMSO. Ligand stock solutions were diluted 100 fold in media and 50 μL of this diluted ligand solution (33 μM) was added to cells. The final concentration of DMSO was maintained at […] in both controls and treatments.
Reporter gene expression was evaluated 48 hours after treatment of cells, β-galactosidase activity was measured using Gal Screen™ bioluminescent reporter gene assay system from Tropix (GSY1000).
Flanking both constructs are long terminal repeats, G418 and puromycin are selectable markers, CMV is the cytomegalovirus promoter, VBE is coding sequence for amino acids 26-546 from Bombyx mori EcR inserted downstream of the VP16 transactivation domain, 6×EcRE is six copies of the ecdysone response element, lacZ encodes for the reporter enzyme β-galactosidase. Suhr, S. T., Gil, E. B., Senut M. C., Gage, F. H. (1998) Proc. Natl. Acad. Sci. USA 95, 7999-804. Swevers, L., Drevet, J. R., Lunke, M. D., Iatrou, K. (1995) Insect Biochem. Mol. Biol. 25, 857-866.

[2] = target: T2, GAL4 DBD (1-147)-CfEcR(DEF)/VP16AD-βRXREF-LmUSPEF (Choristoneura fumiferana, UniProt O77240); assay: 27-63 assay: luciferase reporter gene expression in stable CHO cell clone 27-63; details: single dose 33 μM; RLU ligand treated / RLU DMSO treated cells
T2 sequence (O77240 191-513): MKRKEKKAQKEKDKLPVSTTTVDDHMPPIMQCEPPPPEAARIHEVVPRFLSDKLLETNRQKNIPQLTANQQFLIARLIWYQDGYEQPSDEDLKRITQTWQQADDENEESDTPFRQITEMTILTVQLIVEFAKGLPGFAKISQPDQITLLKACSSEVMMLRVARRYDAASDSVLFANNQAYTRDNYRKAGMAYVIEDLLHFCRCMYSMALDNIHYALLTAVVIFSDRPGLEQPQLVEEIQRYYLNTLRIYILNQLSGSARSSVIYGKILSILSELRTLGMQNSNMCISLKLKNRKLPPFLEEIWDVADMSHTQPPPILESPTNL
T2 sequence (P28702 296-455 partner limits assumed): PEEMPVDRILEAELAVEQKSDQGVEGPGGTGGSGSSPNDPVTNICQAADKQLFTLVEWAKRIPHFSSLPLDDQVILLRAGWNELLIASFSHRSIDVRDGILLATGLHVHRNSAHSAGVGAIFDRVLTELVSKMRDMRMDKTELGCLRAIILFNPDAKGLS
Source text: GAL4 DBD (1-147)-CfEcR(DEF)/VP16AD-βRXREF-LmUSPEF: The wild-type D, E, and F domains from spruce budworm Choristoneura fumiferana EcR (“CfEcR-DEF”; SEQ ID NO: 1) were fused to a GAL4 DNA binding domain (“Gal4 DBD1-147”; nucleotides 31 to 471 of SEQ ID NO: 2) and placed under the control of a phosphoglycerate kinase promoter (“PGK”; SEQ ID NO: 3). Helices 1 through 8 of the EF domains from Homo sapiens RXRβ and helices 9 through 12 of the EF domains of Locusta migratoria Ultraspiracle Protein (“HsRXRβ-EF-LmUSP-EF”; SEQ ID NO: 4) were fused to the transactivation domain from VP16 (“VP16AD”; SEQ ID NO: 5) and placed under the control of an elongation factor-1α promoter (“EF-1α”; SEQ ID NO: 6). Five consensus GAL4 response element binding sites (“5XGAL4RE”; comprising 5 copies of a GAL4RE comprising SEQ ID NO: 7) were fused to a synthetic TATA minimal promoter (SEQ ID NO: 8) and placed upstream of the luciferase reporter gene (SEQ ID NO: 9).
CHO cells were transiently transfected with transcription cassettes for GAL4 DBD (1-147) CfEcR(DEF) and for VP16AD βRXREF-LmUSPEF controlled by ubiquitously active cellular promoters (PGK and EF-1α, respectively) on a single plasmid. Stably transfected cells were selected by Zeocin resistance. Individually isolated CHO cell clones were transiently transfected with a GAL4 RE-luciferase reporter (pFR Luc). 27-63 clone was selected using Hygromycin.
Cells were trypsinized and diluted to a concentration of 2.5×10^4 cells mL. 100 μL of cell suspension was placed in each well of a 96 well plate and incubated at 37° C. under 5% CO2 for 24 h. Ligand stock solutions were prepared in DMSO and diluted 300 fold for all treatments. Dose response testing consisted of 8 concentrations ranging from 33 μM to 0.01 μM.
Luciferase reporter gene expression was measured 48 h after cell treatment using Bright-Glo™ Luciferase Assay System from Promega (E2650). Luminescence was detected at room temperature using a Dynex MLX microtiter plate luminometer.
Fold inductions were calculated from single dose testing by dividing relative light units (RLU) in ligand treated cells by RLU in DMSO treated cells. BC50s were calculated from dose response data using a three-parameter logistic model.

Row | Compound | Fold Induction Average, Z3 Assay (33 μM) [1] | Fold Induction Average, 27-63 Assay (33 μM) [2]
1 | COc1cccc(C(=O)NC2(C(=O)c3cc(C)cc(C)c3)CCCN(C(=O)OC(C)(C)C)C2)c1C (racemic) [Example 146] | 1 | 1
2 | COc1cccc(C(=O)NC2(C(=O)c3cc(C)cc(C)c3)CCCNC2)c1C (racemic) [Example 148] | 7 | 2
3 | COc1cccc(C(=O)NC2(C(=O)c3cc(C)cc(C)c3)CCCN(C(C)=O)C2)c1C (racemic) [Example 153] | 3 | 1
4 | COc1cccc(C(=O)NC2(C(=O)c3cc(C)cc(C)c3)CCCN(S(C)(=O)=O)C2)c1C (racemic) [Example 155] | 4 | 2
5 | CCNC(=O)N1CCCC(NC(=O)c2cccc(OC)c2C)(C(=O)c2cc(C)cc(C)c2)C1 (racemic) [Example 160] | 1 | 1
